Source: PubChem BioAssay (NCI)
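Values below derive from 48-hour exposures of cells grown in 96-well plates, with endpoints linearly interpolated between the two concentrations bracketing the appropriate inhibition level. The concentration for 50% growth inhibition is given as GI50. At the TGI there is no net growth.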

Tests used:
Experiment in all cases: growth of human tumour cells (NCI), 48 h
[1] = test system: A549 NSCLC
[2] = test system: HCT-15 colon
[3] = test system: LOX IMVI melanoma
[4] = test system: NCI-H226 lung
[5] = test system: OVCAR-5 ovarian
[6] = test system: SK-MEL-2 melanoma
[7] = test system: SN12C renal
[8] = test system: SNB-75 CNS
[9] = test system: T-47D breast
[10] = test system: EKVX NSCLC

Structure (SMILES)	GI50 [1]	TGI [1]	GI50 [2]	TGI [2]	GI50 [3]	TGI [3]	GI50 [4]	TGI [4]	GI50 [5]	TGI [5]	GI50 [6]	TGI [6]	GI50 [7]	TGI [7]	GI50 [8]	TGI [8]	GI50 [9]	TGI [9]	TGI [10]	GI50 [10]
CC(=O)N(O)c1ccc(/C=C/c2ccccc2)cc1	1.26 µM	15.5 µM	2.9 µM	> 100 µM	1.48 µM	14.6 µM	0.0656 µM	0.386 µM	2.35 µM	9.46 µM	5.71 µM	37.9 µM	0.763 µM	37.5 µM	0.883 µM	4.59 µM	0.24 µM	> 41.8 µM		
C=C1C=CC2(Br)OC3CC(C)(Cl)C(Br)CC13C2(C)C (stereo not drawn)		> 100 µM		51.3 µM		33.8 µM		34.1 µM		57.6 µM		31.9 µM		37.7 µM		77.7 µM			61.9 µM	
N#CNC1=NC(N)C(c2nc3ccccc3[nH]2)=C(CCCC(=O)Nc2cccc([N+](=O)[O-])c2)N1 (stereo not drawn)		> 100 µM		> 100 µM		> 100 µM		> 100 µM		> 100 µM		> 100 µM		> 100 µM		> 100 µM			> 100 µM	
Nc1nc2ccccc2c2c1S(=O)(=O)c1ccc(Cl)cc1C2=O	3.26 µM	> 50 µM	0.812 µM	2.31 µM	0.873 µM	1.84 µM	2.14 µM	17.3 µM	1.42 µM	4.62 µM	2.27 µM	> 50 µM	1.16 µM	4.54 µM			1.24 µM	> 50 µM	> 50 µM	1.84 µM
Clc1nc(Cl)c2ncn(CCOCCn3cnc4c(Cl)nc(Cl)nc43)c2n1	0.312 µM	1.3 µM	0.185 µM	0.365 µM	0.185 µM	0.35 µM	1.56 µM	3.2 µM	0.227 µM	0.51 µM			0.214 µM	0.433 µM	0.181 µM	0.342 µM			2.77 µM	1.31 µM
Nc1nc(C(=O)O)c(N=Nc2ccccc2)c(=O)[nH]1		> 100 µM		> 100 µM		> 100 µM		> 100 µM		> 100 µM		> 100 µM		> 100 µM		> 100 µM			> 100 µM	
CCOC(=O)C(CCCNC(=O)OC(C)(C)C)N(Cc1ccc(OC)cc1OC)C(=O)CC(=O)CP(=O)(OCC)OCC (stereo not drawn)		> 100 µM				> 100 µM		> 100 µM		> 100 µM		> 100 µM		> 100 µM		> 100 µM			> 100 µM	
Fc1ccc2nc(-c3nc(-c4ccccc4)n4ccccc34)[nH]c2c1	2.68 µM	7.98 µM	4.29 µM	27.7 µM	4.86 µM	20.2 µM	1.8 µM	5.8 µM	3.07 µM	9.04 µM	2.85 µM	7.83 µM	4.5 µM	17.9 µM	2.09 µM	6.87 µM	1.06 µM	4.76 µM		
C/C(=N\NC(=O)C(N)=O)c1c(O)cc(C)oc1=O		> 100 µM		> 100 µM		> 100 µM		> 100 µM				> 100 µM		> 100 µM		> 100 µM			> 100 µM	
